Measured values taken from article PMC2737711 (The Journal of neuroscience : the official journal of the …, 2009).

What was measured:
[1] = target: T1, rat KCC2 (Rattus norvegicus, UniProt Q63633); test: […] influx into Xenopus oocytes; format: cell-based; settings: hypotonic medium, 79 mM chloride, 2 mM RbCl; 0.01 mM ouabain; inhibitor
T1 sequence (Q63633 1-1139): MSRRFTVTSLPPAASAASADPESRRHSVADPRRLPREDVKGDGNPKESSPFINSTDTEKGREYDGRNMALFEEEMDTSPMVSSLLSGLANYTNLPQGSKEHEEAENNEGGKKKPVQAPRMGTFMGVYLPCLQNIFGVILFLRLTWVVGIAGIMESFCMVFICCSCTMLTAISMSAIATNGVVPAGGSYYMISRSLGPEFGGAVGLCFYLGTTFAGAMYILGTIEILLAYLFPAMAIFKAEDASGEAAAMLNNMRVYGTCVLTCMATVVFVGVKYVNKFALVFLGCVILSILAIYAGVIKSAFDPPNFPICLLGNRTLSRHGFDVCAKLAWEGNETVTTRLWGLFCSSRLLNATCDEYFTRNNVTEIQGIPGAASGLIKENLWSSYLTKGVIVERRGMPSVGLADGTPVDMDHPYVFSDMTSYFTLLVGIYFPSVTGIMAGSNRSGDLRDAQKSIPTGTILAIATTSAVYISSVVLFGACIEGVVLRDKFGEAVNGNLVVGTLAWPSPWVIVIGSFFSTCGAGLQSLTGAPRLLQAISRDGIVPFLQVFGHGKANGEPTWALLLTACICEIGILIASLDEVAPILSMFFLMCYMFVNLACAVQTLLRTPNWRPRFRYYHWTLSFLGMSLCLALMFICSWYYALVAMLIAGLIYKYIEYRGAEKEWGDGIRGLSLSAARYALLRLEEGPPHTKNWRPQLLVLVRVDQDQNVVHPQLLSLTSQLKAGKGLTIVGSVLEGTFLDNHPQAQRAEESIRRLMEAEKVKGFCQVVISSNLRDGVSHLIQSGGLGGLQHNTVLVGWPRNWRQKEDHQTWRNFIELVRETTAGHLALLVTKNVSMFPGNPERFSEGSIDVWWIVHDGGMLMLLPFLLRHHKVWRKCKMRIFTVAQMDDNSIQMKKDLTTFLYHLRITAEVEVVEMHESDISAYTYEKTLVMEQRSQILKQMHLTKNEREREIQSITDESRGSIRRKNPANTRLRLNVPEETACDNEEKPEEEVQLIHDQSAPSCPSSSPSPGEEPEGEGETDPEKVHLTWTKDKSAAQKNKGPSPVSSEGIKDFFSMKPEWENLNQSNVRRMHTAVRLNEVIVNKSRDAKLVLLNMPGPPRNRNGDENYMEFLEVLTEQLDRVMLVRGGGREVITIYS

[2] = target: T2, C. elegans KCC-2 (Caenorhabditis elegans, UniProt G5EEC9); test: […] influx into Xenopus oocytes; format: cell-based
T2 sequence (G5EEC9 1-1079): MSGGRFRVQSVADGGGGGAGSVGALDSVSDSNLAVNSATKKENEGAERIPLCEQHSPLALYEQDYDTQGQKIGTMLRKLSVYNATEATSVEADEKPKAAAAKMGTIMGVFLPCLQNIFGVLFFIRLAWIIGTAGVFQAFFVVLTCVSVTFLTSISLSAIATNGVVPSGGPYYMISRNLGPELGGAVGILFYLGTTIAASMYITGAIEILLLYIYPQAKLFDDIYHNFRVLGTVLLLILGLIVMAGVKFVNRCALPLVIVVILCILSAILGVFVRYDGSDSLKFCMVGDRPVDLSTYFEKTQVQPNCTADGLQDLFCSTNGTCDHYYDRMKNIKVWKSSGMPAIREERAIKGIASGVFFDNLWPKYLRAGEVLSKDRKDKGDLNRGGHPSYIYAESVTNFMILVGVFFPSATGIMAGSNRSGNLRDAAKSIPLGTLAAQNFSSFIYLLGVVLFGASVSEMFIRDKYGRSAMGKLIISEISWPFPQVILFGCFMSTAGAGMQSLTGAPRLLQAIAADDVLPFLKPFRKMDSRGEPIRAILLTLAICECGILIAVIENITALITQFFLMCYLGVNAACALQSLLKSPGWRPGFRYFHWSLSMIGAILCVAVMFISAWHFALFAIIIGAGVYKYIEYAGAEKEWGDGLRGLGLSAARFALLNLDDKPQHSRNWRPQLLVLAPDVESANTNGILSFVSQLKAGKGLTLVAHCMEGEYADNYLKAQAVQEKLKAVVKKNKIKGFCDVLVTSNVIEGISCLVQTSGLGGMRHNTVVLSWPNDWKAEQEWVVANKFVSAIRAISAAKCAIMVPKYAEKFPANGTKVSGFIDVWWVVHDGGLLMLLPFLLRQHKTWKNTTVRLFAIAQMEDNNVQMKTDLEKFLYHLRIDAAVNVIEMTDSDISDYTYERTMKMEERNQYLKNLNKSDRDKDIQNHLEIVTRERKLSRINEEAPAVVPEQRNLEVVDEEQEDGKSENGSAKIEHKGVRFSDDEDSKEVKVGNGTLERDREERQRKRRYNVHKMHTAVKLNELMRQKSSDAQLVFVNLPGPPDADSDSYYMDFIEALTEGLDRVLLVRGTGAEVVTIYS

SMILES: CCCCNc1cc(C(=O)O)cc(S(N)(=O)=O)c1Oc1ccccc1 [bumetanide]
- IC50 [1]: 72 ± 16 µM
- IC50 [2]: 32 ± 3 µM
